Assays:
[1] = tested on: LPS-induced acute lung injury (ALI) mouse model; experiment: Lung wet/dry ratio measurement (pulmonary edema), LPS-induced acute lung injury mouse model; format: in vivo, BALB/c mice; conditions: mice, 10 mg/kg or 30 mg/kg intraperitoneally, LPS-induced ALI (FIG. 7)
Description: (§1) 25 6-week-old female BALB/c mice having a weight of 18g to 20 g were purchased from BioLink (DBL CO., Eumseong, Chungcheongbuk-do, Korea), and reared in the animal laboratory of KyungHee University. To establish an LPS-induced acute lung injury model, all the mice were divided into five groups each group of which consisted of 5 mice, and the five groups were referred to as control, vehicle (only LPS treatment), gancaonin N (10 mg/kg), gancaonin N (30 mg/kg), and dexamethasone (3 mg/kg). Gancaonin N was intraperitoneally injected at a dose of 10 mg/kg or 30 mg/kg, and dexamethasone was intraperitoneally injected at a dose of 3 mg/kg as a positive control group. In addition, the control and vehicle groups were intraperitoneally injected with 4% DMSO in which gancaonin N was dissolved. […]
To determine the severity of pulmonary edema, the wet weight of the right upper lung was measured, the tissue was dried 60°C for 72 hours, and the dry weight was measured. Afterwards, the W/D ratio was calculated.
(§2) The mouse models prepared as described in Examples 1 to 3 were treated with LPS to induce acute lung injury (ALI), and then the anti-inflammatory effect of gancaonin N was specifically evaluated for the mice of five groups (control, vehicle (only LPS), gancaonin N (10 mg/kg), gancaonin N (30 mg/kg), and dexamethasone (3 mg/kg)), […]

[2] = tested on: TNF-α; experiment: Western blotting of TNF-α protein in LPS-stimulated A549 cells; format: cell-based, human; conditions: LPS 5 µg/mL, 5 to 40 µM (FIG. 4A)
Description: (§3) RAW264.7 cells and A549 cells were dispensed into 6-well plates (1 × 10^6 cells/well) and cultured under conditions of 37°C and 5% CO2. After the culturing, the Raw 264.7 cells were treated with 1 µg/mL of lipopolysaccharide (LPS) and the A549 cells were treated with 5 µg/mL of lipopolysaccharide (LPS) and with 5 µM to 40 µM of gancaonin N, and the cells were cultured for 24 hours or 6 hours. Then, the cells were lysed using a lysis buffer. In addition, the left lung extracted from each mouse was lysed using RIPA buffer. SDS-PAGE electrophoresis was performed on the cell and tissue lysates to separate proteins by side, and 5% bovine serum albumin was used for culturing and for blocking antibodies against PGE2 (1:500), IL-1β (1:500), IL-6 (1:500), TNF-α (1:500), i-NOS (1:500), COX-2 (1:1000), P-ERK1/2 (1:1000), ERK1/2 (1:3000), P-p38 (1:1000), p38 (1:3000), NF-κB p65 (1:1000), Lamin B1 (1:1000), and β-actin (1: 5,000).
For the pro-inflammatory cytokines whose mRNA expression inhibition was confirmed as above, the expression level of the protein encoded by the mRNA was further checked. To determine the protein expression level, A549 cells were treated with LPS and gancaonin N as described in Examples 1 to 8, and the protein expression levels were checked.

[3] = tested on: iNOS; experiment: Western blotting of iNOS in LPS-stimulated RAW264.7 cells; format: cell-based, murine; conditions: LPS 1 µg/mL, 5 to 40 µM, as treatment concentration increased (FIG. 2C)
Description: as §3
To investigate the anti-inflammatory effect of gancaonin N, the inventors treated Raw264.7 cells with LPS and Gancaonin N, as described in Examples 1 to 6, and evaluated the expression level of inflammation-inducing factors. Thus, the inhibitory effect of gancaonin N on inflammation-related factors was specifically confirmed.

[4] = tested on: LPS-induced acute lung injury (ALI) mouse model; experiment: Bronchoalveolar lavage fluid analysis (inflammatory cell infiltration), LPS-induced acute lung injury mouse model; format: in vivo, BALB/c mice; conditions: mice, 10 mg/kg or 30 mg/kg intraperitoneally one hour before intratracheal LPS
Description: as §1
Bronchoalveolar lavage fluid (BALF) was obtained after anesthetizing each mouse with intranasal isoflurane. […] The cells were stained with the Diff-Quik kit (Sysmex, Kobe, Japan), observed under a microscope, and sorted, and then the total cells and neutrophils were counted.
as §2

[5] = tested on: A549 cells; experiment: Cell viability analysis (MTT), A549 cells; format: cell-based, human; conditions: A549 cells, 5, 10, 20, 40 µM, 24 hours, compared to the control group (FIG. 1B)
Description: RAW264.7 murine macrophage cells were purchased from Korean Cell Line Bank (in Seoul, South Korea). A549 human alveolar basal epithelial cells were purchased from American Type Culture Collection (in ATCC, MD, USA). The cells were cultured in DMEM medium (manufactured by Corning Inc., NY, USA) containing 10% FBS (manufactured by Gibco, NY, USA) and 1X antibiotic-antimycotic solution (manufactured by ABAM, Corning Inc., NY, USA) under conditions of 37°C and 5% CO2.
To evaluate the cytotoxicity of gancaonin N, RAW264.7 cells and A549 cells were dispensed into 96-well plates (1 × 10^4 cells/well) and cultured under conditions of 37°C and 5% CO2. After the culturing, the cells were treated with gancaonin N at concentrations of 5, 10, 20, or 40 µM for 24 hours, and MTT solution (5 mg/mL) was added to each well. After adding 100 µL of dimethyl sulfoxide (DMSO, manufactured by Sigma-Aldrich, St. Louis, MO, USA), the absorbance was measured at 540 nm using a microplate reader (manufactured by Bio-Rad Hercules, CA, USA).
To examine the cytotoxicity of gancaonin N, the inventors treated Raw264.7 cells and A549 cells with gancaonin N according to the methods of Examples 1 to 4 and then measured cell viability.

**Q.** How did the W/D ratio [1] turn out when `COc1ccc(-c2coc3cc(O)c(CC=C(C)C)c(O)c3c2=O)c(O)c1` [gancaonin N, 5,7-dihydroxy-3-(2-hydroxy-4-methoxyphenyl)-6-(3-methylbut-2-enyl)chromen-4-one] was run?
**A.** Its W/D ratio is “significantly lowered”.

**Q.** And the “protein expression of TNF-α” value [2]?
**A.** The value was “significantly inhibited”.

**Q.** And the “expression level of protein of iNOS” value [3]?
**A.** The value was “significantly decreased”.

**Q.** What about the “cell count in bronchoalveolar lavage fluid (BALF)” value ([4]; sacrificed 12 hours later (FIG. 6B)) of the same compound?
**A.** Its value is “significantly reduced”.

**Q.** What about the “neutrophil count in bronchoalveolar lavage fluid (BALF)” value ([4]; sacrificed 12 hours later (FIG. 6C)) of the same compound?
**A.** The value was “significantly reduced”.

**Q.** And the cell viability [5]?
**A.** The cell viability was “did not decrease”.
